Data reported in patent publication US11033556B2, “Bicyclic sulfonamides” (priority 2019, dated 2021).
Like-named read-outs stand apart in the source and are kept apart here.

Columns and labels:
HBV = experiment: HBV-DNA Antiviral Assay Using HepG2.2.15 Cells; assay type: cell-based
Experimental: The following assay procedure describes the HBV antiviral assay. This assay uses HepG2.2.15 cells, which have been transfected with HBV genome, and extracellular HBV DNA quantification as endpoint. Cell viability is assessed in parallel by measuring the intracellular ATP content using the CellTiter-Glo® reagent from Promega.
On day 0, HepG2.2.15 cells were seeded in 96-well plates at a density of 6.0×10^4 cells/well(0.1 ml/well). The cells were incubated at 37° C. and 5% CO2.
On day 1, the test articles were diluted and added to cell culture wells (8 concentrations, 4-fold dilution, in duplicate). GLS4, Tenofovir and Sorafenib were used as reference compounds. 100 μl of culture medium containing the compounds was added to the plate, and the final total volume per well was 200 μl. The final concentration of DMSO in the culture medium was 0.5%. The plate map of compound treatment is shown below. The cells were cultured at 37° C. and 5% CO2 for 3 days.
On day 4, the plates were refreshed with culture media with compounds.
On day 7, cell viability was assessed using the CellTiter-Glo®, and the cell culture supernatants were collected for determination of HBV DNA by qPCR.
Extracellular DNA was isolated with QIAamp 96 DNA Blood Kit per the manufacturer's manual. HBV DNA was then quantified by qPCR with HBV specific primers and probes as specified in Table 2 using the FastStart Universal MasterMix from Roche on an ABI-7900HT. The PCR cycle program consisted of 95° C. for 10 min, followed by 40 cycles at 95° C. for 15 sec and 60° C. for 1 min.
A DNA standard was prepared by dilution of the pAAV2 HBV1.3 plasmid with concentrations ranging from 10 to 1×10^7 […] and used to generate a standard curve by plotting Ct value vs. the concentration of the HBV plasmid DNA standard. The quantity of HBV DNA in each sample was determined by interpolating from the standard curve.
Cell viability was calculated as follows: % Cell viability=(luminescence value of test sample−average luminescence value of blank)/(average luminescence value of 0.5% DMSO control−average luminescence of blank)×100%. HBV DNA inhibition was calculated as follows: 100−(HBV DNA copy number of test sample−HBV DNA copy number of ETV)/HBV DNA copy number of 0.5% DMSO control−HBV DNA copy number of ETV)×100%. The CC50, EC50 and EC90 values were determined by dose-response curves fitted by GraphPad Prism using “log (agonist) vs. response—Variable slope”.

genotype D HBV = experiment: HBV-DNA Antiviral Assay Using HepG2.117 Cells; assay type: cell-based; settings: intracellular HBV DNA by qPCR, day 4
Experimental: The following assay procedure describes the HBV antiviral assay, using HepG2.117 cells, which carry a stably integrated genotype D HBV genome under the control of a Tet-off promoter, and intracellular HBV DNA quantification as endpoint. Cell viability is assessed in parallel by measuring the intracellular ATP content using ATPlite (Perkin Elmer).
On day 0, HepG2.117 cells (which are maintained in routine cell culture with doxycycline present in the medium at a final concentration of 1 μg/mL) were seeded in 96-well plates (white with clear bottom) at a density of 2.0×10^4 cells/well (0.1 mL/well) in medium without doxycycline to induce pgRNA transcription and subsequent formation of HBV particles. The cells were incubated at 37° C. and 5% CO2.
On day 1, medium was removed from each well, the test articles were diluted in culture medium without doxcycyline and 100 μL was added to cell culture wells (9 concentrations, 4-fold dilution). For each plate, 6 untreated (merely DMSO) wells were included. The final concentration of DMSO in the culture medium was 2%. Each plate was prepared in duplicate (one for HBV DNA extraction, one for ATPlite measurement). The cells were incubated at 37° C. and 5% CO2 for 3 days.
On day 4, cell viability was assessed using ATPlite and cell lysates were prepared for HBV DNA extraction and subsequent quantification by qPCR.
Medium was removed from each well and 100 μL of 0.33% NP-40 in H2O was added to each well. Plates were sealed, incubated at 4° C. for 5 mins, vortexed extensively and centrifuged briefly. Next, 35 μL of lysate was added to 65 μL QuickExtract DNA Extraction Solution (Epicentre) in a PCR plate for each well. PCR plate was incubated at 65° C. for 6 mins, 98° C. for 2 mins and finally cooled to 4° C. HBV DNA was then quantified by qPCR with HBV-specific primers and probes as specified in Table 4 using the Bio-Rad SSOAdvanced Universal Probes Supermix on a CFX96 machine (Bio-Rad). The PCR cycle program consisted of 95° C. for 3 mins, followed by 40 cycles at 95° C. for 10 sec and 60° C. for 30 sec.
A DNA standard was prepared by dilution of an IDT gBlock corresponding to the amplicon with concentrations ranging from 10^2 to 10^8 copies/input (i.e. per 4 μL) and used to generate a standard curve by plotting Cq values vs. HBV DNA standard concentration. The quantity of HBV DNA in each sample was determined by interpolating from the standard curve.
Cell viability was calculated as follows: % Cell viability=(luminescence value of test sample)/(average luminescence value of 2% DMSO control)×100%. HBV DNA inhibition was calculated as follows: 100−(HBV DNA copy number of test sample)/(average HBV DNA copy number of 2% DMSO control)×100%. No normalization to entecavir was required due to the excellent dynamic window of this assay. The CC50, EC50 and EC90 values were determined by dose-response curves fitted by GraphPad Prism using “log (agonist) vs. response—Variable slope”.

[1] = Hepatitis B virus, HepG2.2.15 cells, extracellular HBV DNA by qPCR, one class for the group of four: *at least 2 of the diastereomers have the indicated activity, read-out: EC50

Structure (SMILES) | EC50 (HBV; [1]) [nM] | also measured
C=C[C@H]1COc2c(cn(C)c2C(=O)Nc2ccc(F)c(C#N)c2)S(=O)(=O)N1 [Compound 1, (3S)—N-(3-cyano-4-fluorophenyl)-3-ethenyl-7-methyl-1,1-dioxo-2H,3H,4H-11λ6-pyrrolo[3,4-b][1,4,5]oxathiazepine-6-carboxamide] | – | EC50 (HBV; HepG2.2.15 cells, extracellular HBV DNA by qPCR, day 7, read-out: EC50): < 1000 nM; EC50 (genotype D HBV): 1 to 10 nM
CC#C[C@@H](O)[C@@H]1CCc2c(cn(C)c2C(=O)Nc2ccc(F)c(C#N)c2)S(=O)(=O)N1 [Compound 3D, (3S)—N-(3-cyano-4-fluorophenyl)-3-[(1R)-1-hydroxybut-2-yn-1-yl]-7-methyl-1,1-dioxo-2H,3H,4H,5H-1λ6-pyrrolo[3,4-f][1,2]thiazepine-6-carboxamide] | – | EC50 (HBV; Hepatitis B virus, HepG2.2.15): < 1000 nM
C#C[C@@H](O)[C@H]1CCc2c(cn(C)c2C(=O)Nc2ccc(F)c(C#N)c2)S(=O)(=O)N1 [Compound 2A, (3R)—N-(3-cyano-4-fluorophenyl)-3-[(1R)-1-hydroxyprop-2-yn-1-yl]-7-methyl-1,1-dioxo-2H,3H,4H,5H-1λ6-pyrrolo[3,4-f][1,2]thiazepine-6-carboxamide] | < 1000 | –
C#C[C@H](O)[C@@H]1CCc2c(cn(C)c2C(=O)Nc2ccc(F)c(C#N)c2)S(=O)(=O)N1 [Compound 2C, (3S)—N-(3-cyano-4-fluorophenyl)-3-[(1S)-1-hydroxyprop-2-yn-1-yl]-7-methyl-1,1-dioxo-2H,3H,4H,5H-1λ6-pyrrolo[3,4-f][1,2]thiazepine-6-carboxamide] | < 1000 | –
C=C[C@@H](O)[C@H]1CCc2c(cn(C)c2C(=O)Nc2ccc(F)c(C#N)c2)S(=O)(=O)N1 [Compound 4A, (3R)—N-(3-cyano-4-fluorophenyl)-3-[(1R)-1-hydroxyprop-2-en-1-yl]-7-methyl-1,1-dioxo-2H,3H,4H,5H-1λ6-pyrrolo[3,4-f][1,2]thiazepine-6-carboxamide] | < 1000 | –
C=C[C@H](O)[C@H]1CCc2c(cn(C)c2C(=O)Nc2ccc(F)c(C#N)c2)S(=O)(=O)N1 [Compound 4B, (3R)—N-(3-cyano-4-fluorophenyl)-3-[(1S)-1-hydroxyprop-2-en-1-yl]-7-methyl-1,1-dioxo-2H,3H,4H,5H-1λ6-pyrrolo[3,4-f][1,2]thiazepine-6-carboxamide] | < 1000 | –
